This note sets out measurements from patent US4027038A, “Complement inhibitors” (priority 1976, dated 1977).

Structures are written as SMILES.

One test has as its system Forssman vasculitis. As to the kind of experiment: Forssman Vasculitis Test. Conditions: In Vivo; guinea pigs; inhibition of combined index of lesion diameter, edema and hemorrhage; prior intraperitoneal injection at 200 mg/kg. The source says:
(§1) This test measures the ability of activated human C1 to destroy fluid phase human C2 in the presence of C4 and appropriate dilutions of the test compound. An active inhibitor protects C2 from C1 and C4; (ii) Test, Code 035 (C3-C9 inhibitor). This test determines the ability of the late components of human complement (C3-C9 to lyse EAC 142 in the presence of appropriate dilutions of the test compound. An active inhibitor protects EAC 142 from lysis by human C3-C9; (ii) Test, Code 036 (C-Shunt inhibitor)-- In this test human erythrocytes rendered fragile are lysed in autologous serum via the shunt pathway activated by cobra venom factor in the presence of appropriate dilutions of the test compound. Inhibition of the shunt pathway results in failure of lysis; (iv) Forssman Vasculitis Test-- Here, the well known complement dependent lesion, Forssman vasculitis, is produced in guinea pigs by intradermal injection of rabbit anti-Forssman antiserum. The lesion is measured in terms of diameter, edema and hemorrhage and the extent to which a combined index of these is inhibited by prior intraperitoneal injection of the test compound at 200 mg/kg is then reported, unless otherwise stated; (v) Forssman Shock Test-- Lethal shock is produced in guinea pigs by an i.v. injection of anti-Forssman antiserum and the harmonic mean death time of treated guinea pigs is compared with that of simultaneous controls; (vi) Complement Level Reduction Test-- In this test, the above dosed guinea pigs, or other, are bled for serum and the complement level is determined in undiluted serum by the capillary tube method of U.S. Pat. No. 3,876,376 and compared to undosed control guinea pigs; and (vii) Cap 50 Test-- Here, appropriate amounts of the test compound are added to a pool of guinea pig serum in vitro, after which the undiluted serum capillary tube assay referred to above is run. The concentration of compound inhibiting 50% is reported.

The next test concerns shunt pathway. As to the kind of experiment: Test, Code 036 (C-Shunt inhibitor), lysis of fragile human erythrocytes in autologous serum, cobra venom factor. Format: biochemical. Conditions: In Vitro; serial two-fold dilution assay, higher well number indicates higher activity.
Text: as §1

Test [1] deals with complement level in undiluted serum. As to the kind of experiment: Complement Level Reduction Test. Conditions: In Vivo; serum of dosed guinea pigs compared to undosed controls, capillary tube method.
Text: as §1

Test [2] deals with late components of human complement (C3-C9). As to the kind of experiment: Test, Code 035 (C3-C9 inhibitor), lysis of EAC 142. It counts as biochemical. The note with it: In Vitro; serial two-fold dilution assay, higher well number indicates higher activity.
Text: as §1

The next test has as its target T1, activated human C1 (Homo sapiens, UniProt P09871).
T1 sequence (P09871 438-688 limits assumed): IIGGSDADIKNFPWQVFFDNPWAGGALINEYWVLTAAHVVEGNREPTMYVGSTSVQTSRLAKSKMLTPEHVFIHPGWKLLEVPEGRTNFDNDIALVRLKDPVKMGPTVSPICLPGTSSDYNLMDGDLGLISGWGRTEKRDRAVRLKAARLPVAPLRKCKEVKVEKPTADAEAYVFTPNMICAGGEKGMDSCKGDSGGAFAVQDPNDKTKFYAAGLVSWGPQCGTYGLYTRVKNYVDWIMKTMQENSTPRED
T1 sequence (P09871 16-437 limits assumed): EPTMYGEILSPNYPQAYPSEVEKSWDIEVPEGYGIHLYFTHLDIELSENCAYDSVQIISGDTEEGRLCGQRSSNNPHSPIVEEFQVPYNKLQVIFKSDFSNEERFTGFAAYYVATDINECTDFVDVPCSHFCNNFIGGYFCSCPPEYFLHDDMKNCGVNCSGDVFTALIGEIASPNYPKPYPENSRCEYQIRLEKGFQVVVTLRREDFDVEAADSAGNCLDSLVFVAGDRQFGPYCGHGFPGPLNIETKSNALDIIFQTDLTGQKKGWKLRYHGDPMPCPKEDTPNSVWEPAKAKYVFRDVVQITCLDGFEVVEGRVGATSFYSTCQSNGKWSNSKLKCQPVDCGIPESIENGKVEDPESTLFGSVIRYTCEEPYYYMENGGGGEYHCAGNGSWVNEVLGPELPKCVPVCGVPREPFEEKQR
As to the kind of experiment: Test, Code 026 (C1 inhibitor). It counts as biochemical. Conditions: In Vitro; serial two-fold dilution assay, higher well number indicates higher activity.
Text: as §1

For the compound `O=C(Nc1cccc(C(=O)Nc2ccc3c(S(=O)(=O)[O-])cccc3c2S(=O)(=O)[O-])c1)Nc1cccc(C(=O)Nc2ccc3c(S(=O)(=O)[O-])cccc3c2S(=O)(=O)[O-])c1.[Na+].[Na+].[Na+].[Na+]` [2,2'-[Ureylenebis(m-phenylenecarbonylimino)]di-1,5-naphthalenedisulfonic acid tetrasodium salt], the Forssman with Forssman vasculitis is reported as 10. The “036 (C-Shunt inhibitor), activity in wells” value (shortened to “036 (C-Shunt inhibitor)”) with shunt pathway stood at 1 wells. Further, in test [1], the “% Reduction Complement” value was -18%. Besides, the “035 (C3-C9 inhibitor), activity in wells” value in test [2] is on record as 1 wells. Besides, at activated human C1, the “026 (C1 inhibitor), activity in wells” value is reported as “NEG”.

With `O=C(Nc1cccc(C(=O)Nc2ccc(S(=O)(=O)[O-])c3cccc(S(=O)(=O)[O-])c23)c1)Nc1cccc(C(=O)Nc2ccc(S(=O)(=O)[O-])c3cccc(S(=O)(=O)[O-])c23)c1.[Na+].[Na+].[Na+].[Na+]` [4,4'-[Ureylenebis(m-phenylenecarbonylimino)]di-1,5-naphthalenedisulfonic acid tetrasodium salt], in the test on Forssman vasculitis, the Forssman was determined as 10. The “036 (C-Shunt inhibitor)” value in the test on shunt pathway is listed as “NEG”. Also, in test [1], the “% Reduction Complement” value is listed as -18%. Also, in test [2], the “035 (C3-C9 inhibitor), activity in wells” value is “NEG”. The “026 (C1 inhibitor), activity in wells” value on activated human C1 is recorded as 2 wells.

For the compound `O=C(Nc1cccc(C(=O)Nc2cc(S(=O)(=O)[O-])cc3cc(S(=O)(=O)[O-])ccc23)c1)Nc1cccc(C(=O)Nc2cc(S(=O)(=O)[O-])cc3cc(S(=O)(=O)[O-])ccc23)c1.[Na+].[Na+].[Na+].[Na+]` [4,4'-[Ureylenebis(m-phenylenecarbonylimino)]di-2,7-naphthalenedisulfonic acid tetrasodium salt], in the test on Forssman vasculitis, the Forssman is reported as 0. Moreover, the “036 (C-Shunt inhibitor)” value with shunt pathway was “NEG”. Also, in test [1], the “% Reduction Complement” value is “+4%”. In test [2], the “035 (C3-C9 inhibitor), activity in wells” value is on record as “NEG”. Besides, the “026 (C1 inhibitor), activity in wells” value on activated human C1 was found to be 3 wells.

With `O=C(Nc1ccc(C(=O)Nc2ccc(S(=O)(=O)[O-])c3cccc(S(=O)(=O)[O-])c23)cc1)Nc1ccc(C(=O)Nc2ccc(S(=O)(=O)[O-])c3cccc(S(=O)(=O)[O-])c23)cc1.[Na+].[Na+].[Na+].[Na+]` [4,4'-[Ureylenebis(p-phenylenecarbonylimino)]di-1,5-naphthalenedisulfonic acid tetrasodium salt], the Forssman with Forssman vasculitis is on record as 12. Further, the “036 (C-Shunt inhibitor)” value in the test on shunt pathway is reported as “NEG”. Besides, the “% Reduction Complement” value in test [1] is “+58%”. Further, the “035 (C3-C9 inhibitor), activity in wells” value in test [2] is listed as “NEG”. Besides, the “026 (C1 inhibitor), activity in wells” value on activated human C1 is on record as “NEG”.

As to `O=C(Nc1cccc(C(=O)Nc2ccc3cc(S(=O)(=O)[O-])cc(S(=O)(=O)[O-])c3c2)c1)Nc1cccc(C(=O)Nc2ccc3cc(S(=O)(=O)[O-])cc(S(=O)(=O)[O-])c3c2)c1.[Na+].[Na+].[Na+].[Na+]` [7,7'-[Ureylenebis(m-phenylenecarbonylimino)]di-1,3-naphthalenedisulfonic acid tetrasodium salt], the Forssman with Forssman vasculitis was determined as 8. Further, the “036 (C-Shunt inhibitor)” value in the test on shunt pathway came to 1 wells. For the same compound, the “% Reduction Complement” value in test [1] is recorded as -33%. For the same compound, the “035 (C3-C9 inhibitor), activity in wells” value in test [2] is recorded as 1 wells. Further, the “026 (C1 inhibitor), activity in wells” value on activated human C1 turned out to be 3 wells.
